As usually defined, the microsomal CLint is the rate of metabolic loss divided by the concentration. A higher microsomal CLint goes with faster metabolism.

The structures appear in SMILES notation.

The results in this text go back to publication PMC11726654, “Discovery of MDI-114215: A Potent and Selective LIMK Inhibitor To Treat Fragile X Syndrome” (Journal of Medicinal Chemistry, 2024).

The target of data set [1] is LIMK1 (Homo sapiens, UniProt P53667). Description: RapidFire mass spectrometry kinase assay (cofilin phosphorylation). The format is biochemical. The following applies: non-phosphorylated LIMK1; mean ± SEM; read-out: Enzymatic (RapidFire) pIC50 LIMK1 (converted).
The nature of data set [2]: Microsomal stability. Conditions: for microsomal CLint at 0.5 h, 2 µM / microsomal CLint at 2 μM: human, microsomes, pH 7.4.
The nature of data set [3]: Microsomal stability. Conditions: for Microsomal CLint Rat: rat microsomes, 2 μM compound.
Data set [4] deals with LIMK2 (Homo sapiens, UniProt P53671). Description: RapidFire mass spectrometry kinase assay (cofilin phosphorylation). The format is biochemical. The following applies: non-phosphorylated LIMK2; mean ± SEM; read-out: Enzymatic (RapidFire) pIC50 LIMK2 (converted).
Sequence of LIMK2 (P53671 whole entry): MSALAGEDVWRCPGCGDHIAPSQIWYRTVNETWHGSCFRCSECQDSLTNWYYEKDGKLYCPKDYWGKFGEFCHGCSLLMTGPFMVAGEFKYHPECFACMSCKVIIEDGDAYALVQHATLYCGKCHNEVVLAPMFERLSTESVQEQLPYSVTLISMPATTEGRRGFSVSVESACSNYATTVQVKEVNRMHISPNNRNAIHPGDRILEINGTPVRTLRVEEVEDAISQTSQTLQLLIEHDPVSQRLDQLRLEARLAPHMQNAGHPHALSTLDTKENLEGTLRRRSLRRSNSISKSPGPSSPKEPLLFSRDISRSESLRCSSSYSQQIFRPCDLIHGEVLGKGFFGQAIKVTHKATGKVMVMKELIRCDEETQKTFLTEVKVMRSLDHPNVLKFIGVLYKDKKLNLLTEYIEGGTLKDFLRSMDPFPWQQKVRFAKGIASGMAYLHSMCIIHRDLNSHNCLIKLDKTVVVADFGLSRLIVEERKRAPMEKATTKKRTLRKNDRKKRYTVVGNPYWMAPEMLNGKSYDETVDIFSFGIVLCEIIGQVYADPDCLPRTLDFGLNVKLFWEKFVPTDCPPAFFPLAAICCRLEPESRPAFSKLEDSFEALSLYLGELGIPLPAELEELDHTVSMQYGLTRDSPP

Sequence of LIMK1 (P53667 whole entry): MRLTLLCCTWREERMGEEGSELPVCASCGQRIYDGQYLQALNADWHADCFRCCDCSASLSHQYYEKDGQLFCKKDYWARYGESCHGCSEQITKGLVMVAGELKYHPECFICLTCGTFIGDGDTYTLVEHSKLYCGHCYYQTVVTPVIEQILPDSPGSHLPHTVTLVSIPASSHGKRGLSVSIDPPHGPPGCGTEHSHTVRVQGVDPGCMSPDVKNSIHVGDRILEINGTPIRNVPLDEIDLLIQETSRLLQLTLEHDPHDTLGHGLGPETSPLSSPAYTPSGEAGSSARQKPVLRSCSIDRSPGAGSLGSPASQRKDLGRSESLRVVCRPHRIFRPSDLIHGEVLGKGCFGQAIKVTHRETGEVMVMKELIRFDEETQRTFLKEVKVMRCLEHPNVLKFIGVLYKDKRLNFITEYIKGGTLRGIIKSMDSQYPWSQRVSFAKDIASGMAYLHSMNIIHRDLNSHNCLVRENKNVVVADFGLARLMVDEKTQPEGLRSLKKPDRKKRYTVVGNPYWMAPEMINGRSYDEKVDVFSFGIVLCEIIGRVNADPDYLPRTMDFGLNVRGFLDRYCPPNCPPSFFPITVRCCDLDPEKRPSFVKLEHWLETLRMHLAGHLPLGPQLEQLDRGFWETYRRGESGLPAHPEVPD

Take `CCCCN(Cc1ccco1)C(=O)c1ccc(S(=O)(=O)Nc2ccccc2)cc1` [Compound 46, N-Butyl-N-(furan-2-ylmethyl)-4-(N-phenylsulfamoyl)benzamide]: the IC50 in data set [1] is 347 nM. In data set [2] (human microsomes, 2 μM compound), the “Microsomal CLint Human” value was “Rapid”. Further, the “Microsomal CLint Rat” value in data set [3] is “Rapid”.
`Nc1ccc(CN(CC2CC2)C(=O)c2ccc(S(=O)(=O)Nc3ccccc3)cc2)nc1` [Compound 72, N-[(5-Amino-2-pyridyl)methyl]-N-(cyclopropylmethyl)-4-(phenylsulfamoyl)benzamide]: the intrinsic metabolic clearance (microsomal CLint) at 0.5 h, 2 µM in data set [2] was determined as 36 µL/min/mg; in data set [3] (rat, microsomes, pH 7.4), 431 µL/min/mg.
For `CCCCN(Cc1ccncc1)C(=O)c1ccc(S(=O)(=O)Nc2ccccc2)cc1` [Compound 43, N-Butyl-4-(N-phenylsulfamoyl)-N-(pyridin-4-ylmethyl)benzamide], the IC50 in data set [1] is 977 nM; in data set [4], 19.1 nM. The microsomal CLint at 2 μM was 144 µL/min/mg in data set [2] and 484 µL/min/mg in data set [3] (rat, microsomes, pH 7.4).
For `CCCCN(Cc1cccnc1)C(=O)c1ccc(S(=O)(=O)Nc2ccccc2)cc1` [Compound 44, N-Butyl-4-(N-phenylsulfamoyl)-N-(pyridin-3-ylmethyl)benzamide], the IC50 in data set [1] was 8130 nM; in data set [4] it was 1510 nM. Moreover, the microsomal CLint at 2 μM in data set [2] came to 234 µL/min/mg. For the same compound, the “Microsomal CLint Rat” value in data set [3] is listed as “Rapid”.
`C[C@H](c1ccccc1)N(CC1CC1)C(=O)c1ccc(S(=O)(=O)Nc2ccccc2)cc1` [Compound 65, (R)-N-(Cyclopropylmethyl)-N-(1-phenylethyl)-4-(N-phenylsulfamoyl)benzamide]: the results for the IC50 in data set [1] and in data set [4] were 4900 nM and 1070 nM, respectively. The compound further returned a microsomal CLint at 2 μM in data set [2] of 419 µL/min/mg. In addition, in data set [3], the “Microsomal CLint Rat” value is reported as “Rapid”.
Consider `CCCCN(Cc1ccccc1)C(=O)c1ccc(S(=O)(=O)NC)cc1` [Compound 34, N-Benzyl-N-butyl-4-(N-methylsulfamoyl)benzamide], for which the IC50 in data set [1] and in data set [4] was more than 10000 nM in each case.
Turning to `O=C(c1ccc(S(=O)(=O)Nc2ccccc2)cc1)N(CCCn1ccnc1)Cc1ccccc1` [Compound 56, N-Benzyl-N-(3-imidazol-1-ylpropyl)-4-(phenylsulfamoyl)benzamide], the IC50 is 347 nM in data set [1] and 18.2 nM in data set [4]. Further, the microsomal CLint at 2 μM is 80 µL/min/mg in data set [2] and 158 µL/min/mg in data set [3] (rat, microsomes, pH 7.4).
Take `CCCCN(Cc1ccccc1)C(=O)c1ccc(S(=O)(=O)Cc2ccccc2)cc1` [Compound 29, N-Benzyl-4-benzylsulfonyl-N-butyl-benzamide]: the results for the IC50 in data set [1] and in data set [4] were more than 10000 nM and 468 nM, respectively.
As for `CCCCN(Cc1ccc(CCC(=O)O)cc1)C(=O)c1ccc(S(=O)(=O)Nc2ccccc2)cc1` [Compound 48, 3-(4-((N-Butyl-4-(N-phenylsulfamoyl)benzamido)methyl)phenyl)propanoic acid], the IC50 in data set [1] was 166 nM; in data set [4], 20.9 nM. The intrinsic metabolic clearance (microsomal CLint) at 2 μM amounted to 15 µL/min/mg in data set [2] and 18 µL/min/mg in data set [3] (rat, microsomes, pH 7.4).
In the case of `O=C(c1ccc(S(=O)(=O)Nc2ccccc2)cc1)N(CCO)Cc1ccccc1` [Compound 53, N-Benzyl-N-(2-hydroxyethyl)-4-(N-phenylsulfamoyl)benzamide], the IC50 in data set [1] is 209 nM. In data set [2], the intrinsic metabolic clearance (microsomal CLint) at 2 μM stood at 76 µL/min/mg. Further, in data set [3], the “Microsomal CLint Rat” value was “Rapid”.
For `CCCCN(Cc1ccc(F)cc1)C(=O)c1ccc(S(=O)(=O)Nc2ccccc2)cc1` [Compound 39, N-Butyl-N-(4-fluorobenzyl)-4-(N-phenylsulfamoyl)benzamide], in data set [1], the IC50 was 195 nM. The microsomal CLint at 2 μM in data set [2] worked out at 409 µL/min/mg; in data set [3] (rat, microsomes, pH 7.4), 942 µL/min/mg.
With `CCCCN(Cc1ccccc1)C(=O)c1coc(S(=O)(=O)Nc2ccccc2)c1` [Compound 30, N-Benzyl-N-butyl-5-(phenylsulfamoyl)furan-3-carboxamide], the IC50 in data set [1] was 6920 nM; in data set [4], 933 nM.
Turning to `CCCCN(Cc1ccccc1)C(=O)c1ccc(S(=O)(=O)Nc2ccccc2)cc1F` [Compound 21, N-Benzyl-N-butyl-2-fluoro-4-(phenylsulfamoyl)benzamide], the IC50 was 407 nM in data set [1] and 30.2 nM in data set [4].
On to `CCCCN(Cc1ccccc1)C(=O)c1cnc(S(=O)(=O)Nc2ccccc2)nc1` [Compound 24, N-Benzyl-N-butyl-2-(phenylsulfamoyl)pyrimidine-5-carboxamide], for which the IC50 was 891 nM in data set [1] and 1740 nM in data set [4].
The matching figures for `CCCCN(Cc1ccccc1)C(=O)c1ccc(S(=O)(=O)Nc2cnoc2)cc1` [Compound 36, N-Benzyl-N-butyl-4-(isoxazol-4-ylsulfamoyl)benzamide]: more than 10000 nM and 6610 nM.
Take `CCCCN(Cc1ccccc1)C(=O)c1ccc(S(=O)(=O)Nc2ccccc2)cc1C` [Compound 22, N-Benzyl-N-butyl-2-methyl-4-(phenylsulfamoyl)benzamide]: the IC50 in data set [1] was 2140 nM; in data set [4], 148 nM.
With `CCCCN(Cc1ccccc1)C(=O)c1ccc(S(=O)(=O)Nc2ccncc2)cc1` [Compound 35, N-Benzyl-N-butyl-4-(N-(pyridin-4-yl)sulfamoyl)benzamide], the IC50 in data set [1] and in data set [4] was more than 10000 nM in each case.
On to `CCCCN(Cc1ccccc1)C(=O)c1ccc(S(=O)(=O)NC2CCC2)cc1` [Compound 37, N-Benzyl-N-butyl-4-(N-cyclobutylsulfamoyl)benzamide], for which the figures for the IC50 in data set [1] and in data set [4] were 4470 nM and 372 nM, respectively.
As to `CCN(Cc1ccccc1)C(=O)c1ccc(S(=O)(=O)Nc2ccccc2)cc1` [Compound 52, N-Benzyl-N-ethyl-4-(N-phenylsulfamoyl)benzamide], in data set [2], the microsomal CLint at 2 μM worked out at 720 µL/min/mg. For the same compound, in data set [3], the “Microsomal CLint Rat” value is “Rapid”.
As for `CCCCN(Cc1ccccc1)C(=O)c1ccc(S(=O)(=O)Nc2ccccc2)cn1` [Compound 23, N-Benzyl-N-butyl-5-(phenylsulfamoyl)pyridine-2-carboxamide], the IC50 in data set [1] was 1350 nM; in data set [4], 166 nM.
Turning to `CCCCN(Cc1ccccc1)C(=O)c1ccc(S(=O)(=O)NC2COC2)cc1` [Compound 38, N-Benzyl-N-butyl-4-(N-(oxetan-3-yl)sulfamoyl)benzamide], the IC50 in data set [1] and in data set [4] was more than 10000 nM each time.
In the case of `CN(C)CCNc1ccc(CN(CC2CC2)C(=O)c2ccc(S(=O)(=O)Nc3ccccc3)cc2)nc1` [Compound 78, N-(Cyclopropylmethyl)-N-[[5-[2-(dimethylamino)ethylamino]-2-pyridyl]methyl]-4-(phenylsulfamoyl)benzamide], the intrinsic clearance (microsomal CLint) at 2 μM in data set [2] was 23 µL/min/mg; in data set [3] (rat, microsomes, pH 7.4), 31 µL/min/mg.
In the case of `O=C(c1ccc(S(=O)(=O)Nc2ccccc2)cc1)N(Cc1ccccc1)CC1CC1` [Compound 57, N-Benzyl-N-(cyclopropylmethyl)-4-(phenylsulfamoyl)benzamide], the intrinsic metabolic clearance (microsomal CLint) at 0.5 h, 2 µM in data set [2] stood at 495 µL/min/mg. Besides, the “Microsomal CLint Rat” value in data set [3] was “Rapid”.
Consider `CCN(Cc1ccc(NCCO)cn1)C(=O)c1ccc(S(=O)(=O)Nc2ccccc2)cc1` [Compound 80, N-Ethyl-N-[[5-(2-hydroxyethylamino)-2-pyridyl]methyl]-4-(phenylsulfamoyl)benzamide], for which the microsomal CLint at 2 μM in data set [2] was 12 µL/min/mg; in data set [3] (rat, microsomes, pH 7.4), 51 µL/min/mg.
